Assay results as given in ChEMBL document CHEMBL4811216, “Chemotherapy for human schistosomiasis: how far have we come? What's new? Where do we go from here?” (RSC Med Chem, 2020).

Columns and labels:
Schistosoma mansoni [1] = assay: Antischistosomal activity against Schistosoma mansoni incubated for 72 hrs by microscopic method; type: functional, organism-based
Schistosoma mansoni [2] = assay: Antischistosomal activity against adult Schistosoma mansoni measured up to 72 hrs by microscopic method; type: functional, organism-based
Schistosoma mansoni [3] = assay: Antischistosomal activity against Schistosoma mansoni NTS assessed as worm mortality at 10 uM measured up to 72 hrs by microscopic method relative to control; type: functional; settings: time hrs <=72

SMILES | IC50 (Schistosoma mansoni [1]) | IC50 (Schistosoma mansoni [2]) | mortality at 10 µM (Schistosoma mansoni [3])
FC(F)(F)Oc1ccc(Nc2cc(C(F)(F)F)cc3nc4ccccc4n23)cc1 | 200 nM | – | –
N#Cc1c(C(F)(F)F)cc(Nc2ccccc2OC(F)(F)F)n2c1nc1ccccc12 | 200 nM | – | –
CCNCCNc1cc(-c2ccc(C(F)(F)F)cc2)c(C#N)c2nc3cccc(Cl)c3n12 | – | 200 nM | > 70%
N#Cc1c(-c2ccc(C(F)(F)F)cc2)cc(NCCn2ccnc2)n2c1nc1ccccc12 | – | 200 nM | > 70%
CCNCCNc1cc(-c2ccc(C(F)(F)F)cc2)c(C#N)c2nc3cccc(Br)c3n12 | – | 200 nM | > 70%
CNC1CCN(c2cc(-c3ccc(C(F)(F)F)cc3)c(C#N)c3nc4ccccc4n23)C1 (stereo not given) | – | 200 nM | > 70%
CCNCCNc1cc(-c2ccc(C(F)(F)F)cc2)c(C#N)c2nc3cc(Cl)c(Cl)cc3n12 | – | 200 nM | > 70%
Cc1ccc(CNc2cc(C(F)(F)F)c(C#N)c3nc4cc(Cl)c(Cl)cc4n23)cc1 | 200 nM | – | –
CCNCCNc1cc(-c2ccc(Cl)c(Cl)c2)c(C#N)c2nc3ccccc3n12 | – | 200 nM | > 70%
O=S(=O)(Nc1cc(C(F)(F)F)cc2nc3cc(Cl)c(Cl)cc3n12)c1ccc(OC(F)(F)F)cc1 | 200 nM | – | –
N#Cc1c(C(F)(F)F)cc(NCc2cccc(F)c2)n2c1nc1cc(Cl)c(Cl)cc12 | 200 nM | – | –
N#Cc1c(C(F)(F)F)cc(NCc2ccc(OC(F)(F)F)cc2)n2c1nc1cc(Cl)c(Cl)cc12 | 200 nM | – | –
CN1CCC(Oc2cc(-c3ccc(C(F)(F)F)cc3)c(C#N)c3nc4ccccc4n23)CC1 | – | 200 nM | > 70%
N#Cc1c(C(F)(F)F)cc(Nc2cccc(OC(F)(F)F)c2)n2c1nc1ccccc12 | 200 nM | – | –
N#Cc1c(C(F)(F)F)cc(Nc2ccc(OC(F)(F)F)cc2)n2c1nc1cc(Cl)c(Cl)cc12 | 200 nM | – | –
N#Cc1c(C(F)(F)F)cc(NCc2ccc(F)cc2)n2c1nc1cc(Cl)cc(Cl)c12 | 200 nM | – | –
CCNCCNc1cc(C2CCCC2)c(C#N)c2nc3ccccc3n12 | – | 200 nM | > 70%

SMILES | IC50 (Schistosoma mansoni [1]) | IC50 (Schistosoma mansoni [2]) | mortality at 10 µM (Schistosoma mansoni [3])
N#Cc1c(C(F)(F)F)cc(NCc2cccs2)n2c1nc1cc(Cl)c(Cl)cc12 | 200 nM | – | –
CN1CCC(Nc2cc(-c3ccc(C(F)(F)F)cc3)c(C#N)c3nc4cc(Cl)c(Cl)cc4n23)CC1 | – | 200 nM | > 70%
CC(Nc1cc(C(F)(F)F)cc2nc3cc(Cl)c(Cl)cc3n12)c1ccc(S(C)(=O)=O)cc1 (stereo not given) | 200 nM | – | –
CCNCCNc1cc(-c2ccc(C(F)(F)F)cc2)c(C#N)c2nc3c(Cl)cc(Cl)cc3n12 | – | 200 nM | > 70%
N#Cc1c(C(F)(F)F)cc(NCc2ccccn2)n2c1nc1cc(Cl)c(Cl)cc12 | 200 nM | – | –
Clc1ccc2c(N3CCNCCN(c4ccnc5cc(Cl)ccc45)CCNCC3)ccnc2c1 | 1600 nM | – | –
N#Cc1c(-c2ccc(C(F)(F)F)cc2)cc(NC2CCC(N)CC2)n2c1nc1cc(Cl)cc(Cl)c12 (stereo not given) | – | 200 nM | > 70%
CCNCCNc1cc(C2CCCCC2)c(C#N)c2nc3ccccc3n12 | – | 200 nM | > 70%
CCN(CC)CCCC(C)Nc1cc(-c2ccc(C(F)(F)F)cc2)c(C#N)c2nc3ccccc3n12 (stereo not given) | – | 200 nM | > 70%
N#Cc1c(C(F)(F)F)cc(Nc2ccc(OC(F)(F)F)cc2)n2c1nc1ccccc12 | 200 nM | – | –
CCNCCNc1cc(-c2ccc(C(F)(F)F)cc2)c(C#N)c2nc3ccccc3n12 | – | 200 nM | > 70%
CCNCCNc1cc(-c2ccc(C(F)(F)F)cc2)c(C#N)c2nc3ncccc3n12 | – | 200 nM | > 70%
N#Cc1c(C(F)(F)F)cc(NCc2ccc(F)cc2)n2c1nc1cc(Cl)c(Cl)cc12 | 200 nM | – | –
N#Cc1ccc(S(=O)(=O)Nc2cc(C(F)(F)F)cc3nc4cc(Cl)c(Cl)cc4n23)cc1 | 200 nM | – | –
CCNCCNc1cc(-c2ccc(C(F)(F)F)cc2)c(C#N)c2nc3cc(Cl)ccc3n12 | – | 200 nM | > 70%
CCNCCNc1cc(-c2cccc(C(F)(F)F)c2)c(C#N)c2nc3ccccc3n12 | – | 200 nM | > 70%
